Assay results as given in patent EP2167084B1, “AN ALLERGEN DOSAGE FORM COMPRISING AN ANTIHISTAMINE” (ALK-Abelló A/S, priority 2007, dated 2008).

Experiment: Cross-over, single-centre investigation of the effect of desloratidine on local adverse effects caused by Phleum pratense pollen extract (Grazax)
Type: in vivo, patients
Conditions: 2.5 mg, half the daily dose for a person above 12 years of age, given with Grazax
From the text: Investigation of the effect of desloratidine on adverse effects such itching in or around the mouth and the lips, ithching throat, itching in the ears and eyes caused by Phleum pratense pollen extract
The study was is was a cross-over, single-centre investigation.
The patients participated on two single days (visit 1 and visit 2) separated by approximately two weeks to avoid development of tolerance due to Grazax treatment. The subjects received one Grazax 75,000 SQ-T on Visit 1 and if they reported treatment related local adverse events in the mouth and/or throat after intake they were eligible for Visit 2. If no treatment related adverse events were reported after Grazax intake on Visit 1 the subjects were excluded from the study. On visit 2, the subjects received 1 antihistamine (Aerius (Desloratadine) melting tablet 2.5 mg, i.e. orally-disintegrating tablet). Grazax was administered immediately after intake of antihistamine.
AEs were reported on AE pages. AEs were rated mild, moderate or severe. Furthermore, the subjects rated the AE severity on a Visual Analogue Scale (VAS). The AEs of interest were itching mouth, itching throat or other local reactions.
A total of 15 subjects attended visit 1. […] These were therefore eligible for visit 2. Key selection criteria were: • 1. […]

Clc1ccc2c(c1)CCc1cccnc1C2=C1CCNCC1 [desloratidine]
relief from the itching of the mouth and pharynx: sufficient to relieve most patients
